# Measured values reported in patent US20110091945A1, “METHODS OF INCREASING BIOMASS PRODUCTIVITY, LIPID INDUCTION, AND CONTROLLING METABOLITES IN ALGAE FOR PRODUCTION OF BIOFUELS USING BIOCHEMICAL STIMULANTS” (priority 2009, published 2011).
# Read-outs that look alike come from different tables or passages of the source.
# Key:
# Anabaena = conditions: cited from earlier work; for inhibition: 500 mg malathion L^−1
# Chlorella pyrenoidosa = conditions: 100 mg of malathion L^−1; cited from earlier work
# Chlorella sorokiniana [1] = test: Malathion growth study: chlorophyll fluorescence kinetics by PAM; type: cell-based, Chlorella sorokiniana (UTEX 2805); conditions: day 12; for Fv/Fm (maximum photosynthetic efficiency of PSII): control 0.672
# Description: A 2% neutral lipid corn standard supplied by Ankom was used as an analytical standard. Carbon, hydrogen, nitrogen, and sulfur percentages in the biomass were estimated using a LECO CHNS932 elemental analyzer. • Chlorophyll fluorescence kinetics by PAM: The Pulse-Amplitude-Modulation Fluorometer (Mini-PAM, WALZ GmBH, Effeltrich, Germany) used for chlorophyll a fluorescence measurements were performed in real-time using the mini-PAM's internal halogen light as the actinic light source for fluorescence measurements of maximum photosynthetic yield, effective photosynthetic yield (PSII), electron transfer rate (ETR), photosynthetic quenching (qP) and non photochemical quenching (NPQ). The algal samples were dark adapted for one hour prior to the analysis. A small quantity (2.5 mL) of dark adopted sample in a 10 mm path length cuvette was placed in a dark chamber. The PAM fluorometer was connected to the sample via a fiber optic bundle. After stabilization of the auto fluorescence, the probing light beam was turned on and the baseline fluorescence (Fo) was recorded. A single saturating flash (1 s, 8,000 μmol m^−2 s^−1) was then applied to reach maximal fluorescence (Fm). The maximum photosynthetic efficiency of PSII was estimated as in the following equation for the dark adopted culture:
# The induction kinetics were initiated by turning on the actinic light source (100 μmol m^−2 s^−1). During the induction curve under actinic light (AL) exposure, saturating light pulses (1 s; 8,000 μmol m^−2 s^−1) were given every 20 seconds to determine the effective quantum yield (Φ PSII), electron transfer rates (ETR), photochemical (qP) and non-photochemical (NPQ) quenching. The qP value was determined by the PAM data analysis software, which uses Fo as opposed to Fo′ in the equation providing a estimate of qP rather than an absolute measurement using far-red light exposure. These tests were done in duplicates.
# (§1) • Test strain: Chlorella sorokiniana (UTEX 2805) was obtained from UTEX Culture Collections and maintained in BG11 medium (Stanier et al., (1971) Bacteria Rev. 35: 171-205, incorporated herein in its entirety). The pH of culture medium was adjusted to 7.5±0.2 before inoculation and the alga was maintained in a temperature controlled growth chamber at 25±1° C. and 100±10 μmol m^−2 s^−1 light intensity with 12/12 h L/D cycle provided by cool white fluorescent (6500 K) T-8 bulbs. • Pesticide: A twelve day time-scale growth study was conducted to evaluate the effect of pesticide toxicity on algal growth and metabolism. The pesticide malathion (Spectracide, 50% v/v) was used and added to fresh BG11 medium to obtain final concentrations of 70, 140, 280 and 560 mg of malathion L^−1 for the treatments. […] After sterilization, C. sorokiniana was added as inoculum to obtain an initial biomass concentration of 0.075 g L^−1 in all the treatments in triplicates. The cultures were incubated in the growth chamber as explained above. For each sampling period, three randomly chosen flasks of each treatment were removed and then refrigerated at 4° C. until further analysis.
# Chlorella sorokiniana [2] = test: Malathion growth study: neutral lipid content; type: cell-based, Chlorella sorokiniana (UTEX 2805); conditions: for increase in lipid production over the control: day 6
# Description: • Biomass Composition: Neutral lipids were estimated using an Ankom XT10 automated extractor (Chinnasamy et al., (2010) Bioresource Technol. 101: 3097-3105). Lipid content was measured gravimetrically using hexane as solvent. The same filters used for the biomass measurements (from 25 mL of culture) were used for the lipid estimation as they provided the initial weight of biomass (W1). The filters were then placed into Ankom XT4 extraction bags, sealed with the impulse sealer and then autoclaved at 121° C. for 15 min. After drying, the extraction bags were placed in a resealable plastic bag with desiccant material while each individual bag was removed and carefully weighed (W2). Extraction bags were then placed into the Ankom extractor and extraction was performed for 2 h at 105° C. with hexane as solvent. Bags were then transferred to a forced-air oven and dried at 60° C. overnight, then cooled in a dessicator and weighed (W3). The following equation was used to calculate the lipid content of algal samples:
# as §1
# Nostoc calcicola = conditions: cited from earlier work
# [3] = system: Stigeoclonium, Tribonema, and Vaucheria; conditions: 1 μg L^−1; cited from earlier work
compound,measurement,setting,value
"CCOC(=O)CC(SP(=S)(OC)OC)C(=O)OCC (stereo not shown) [malathion, 2-(dimethoxyphosphinothioylthio)butanedioic acid diethyl ester]","resistance to malathion, in words",Anabaena; 500 mg L^−1,highly resistant
same,inhibition,Anabaena; day 5,64%
same,inhibition,Anabaena; day 30,15%
same,"effect on growth, in words",Chlorella pyrenoidosa,very little effect on the growth
same,"effective photosynthetic yield, higher over the control",Chlorella sorokiniana [1]; 70 mg malathion L^−1,about 1.2 times
same,"electron transfer rate, higher over the control",Chlorella sorokiniana [1]; 70 mg malathion L^−1,about 1.2 times
same,"non-photochemical quenching (NPQ) versus control, in words",Chlorella sorokiniana [1]; 70 mg malathion L^−1,comparable with the control
same,"photochemical quenching, higher over the control",Chlorella sorokiniana [1]; 70 mg malathion L^−1,about 1.2 times
same,Fv/Fm (maximum photosynthetic efficiency of PSII),Chlorella sorokiniana [1]; 70 mg malathion L^−1,0.671
same,"effective photosynthetic yield, higher over the control",Chlorella sorokiniana [1]; 140 mg malathion L^−1,about 1.2 times
same,"electron transfer rate, higher over the control",Chlorella sorokiniana [1]; 140 mg malathion L^−1,about 1.2 times
same,"non-photochemical quenching (NPQ), less than the control",Chlorella sorokiniana [1]; 140 mg malathion L^−1,18%
same,"photochemical quenching, higher over the control",Chlorella sorokiniana [1]; 140 mg malathion L^−1,about 1.2 times
same,Fv/Fm (maximum photosynthetic efficiency of PSII),Chlorella sorokiniana [1]; 140 mg malathion L^−1,0.641
same,increase in lipid production over the control,Chlorella sorokiniana [2]; 70 mg malathion L^−1,70%
same,increase in lipid over control,"Chlorella sorokiniana [2]; 70 mg malathion L^−1, day 9",42%
same,increase in lipid production over the control,Chlorella sorokiniana [2]; 140 mg malathion L^−1,110%
same,increase in lipid over control,"Chlorella sorokiniana [2]; 140 mg malathion L^−1, day 9",119%
same,increase in lipid content over control,"Chlorella sorokiniana [2]; 140 mg malathion L^−1, day 12",25%
same,increase in lipid production over the control,Chlorella sorokiniana [2]; 280 mg malathion L^−1,325%
same,increase in lipid over control,"Chlorella sorokiniana [2]; 280 mg malathion L^−1, day 9",212%
same,increase in lipid content of the cells with respect to day 3,"Chlorella sorokiniana [2]; T1, 70 mg malathion L^−1, day 9, control 97%",193%
same,increase in lipid content of the cells with respect to day 3,"Chlorella sorokiniana [2]; T1, 70 mg malathion L^−1, day 12, control 287%",406%
same,increase in lipid content of the cells with respect to day 3,"Chlorella sorokiniana [2]; T2, 140 mg malathion L^−1, day 9, control 97%",150%
same,increase in lipid content of the cells with respect to day 3,"Chlorella sorokiniana [2]; T2, 140 mg malathion L^−1, day 12, control 287%",574%
same,increase in lipid production,Chlorella sorokiniana [2]; concentrations ranging from 70-280 mg L^−1 in the growth medium,70-325%
same,concentration above which growth was reduced,Nostoc calcicola,above 500 mg L^−1
same,inhibition of chlorophyll production,[3],100%
